Reference: patent publication US20180256595A1, “AGENT FOR ENHANCING OCULAR HYPOTENSIVE EFFECT” (KOWA COMPANY, LTD., priority 2015, published 2018)

Experiment: Multi-center open-label study: continuous ocular instillation of 0.4% ripasudil ophthalmic solution twice daily for 52 weeks, change in intra-ocular pressure
Type: in vivo, patients
Method: A multi-center open-label study was performed using a cohort for a monotherapy of ripasudil ophthalmic solution (173 cases) and a cohort for an additive therapy of a ripasudil ophthalmic solution in combination with another agent (181 cases) (additive therapy to a PG related drug: 62 cases, additive therapy to a β blocker: 60 cases, additive therapy to a combination drug of said PG-related drug and said β blocker: 59 cases). Patients with primary open angle glaucoma, ocular hypertension, and exfoliation glaucoma (one type of secondary glaucoma to cause aqueous humor outflow resistance due to exfoliation substances in aqueous humor or the like) having a pre-treatment intra-ocular pressure of 15 mmHg or higher or a post-treatment intra-ocular pressure of 15 mmHg or higher at the time after treatment of a PG-related drug, a β-blocker, or a combination drug of the PG-related drug and β-blocker were enrolled. A 0.4% ripasudil ophthalmic solution was dropped into an eye twice daily for 52 weeks. In order to evaluate intra-ocular pressure-lowering effect over time caused by long-term ocular instillation, the amount of change in intra-ocular pressure (least mean square value) in a second half of ocular instillation (32 weeks to 52 weeks) with respect to a first half of ocular instillation (4 weeks to 28 weeks) was examined. Statistical analysis was performed using SAS (SAS Inc., Cary, N.C.) by a least squares method based on a mixed effect model.

[1] = 2 hours after ocular instillation, baseline intra-ocular pressure 15≤ to <18 mmHg
[2] = 2 hours after ocular instillation, baseline intra-ocular pressure 18≤ to <−21 mmHg
[3] = 2 hours after ocular instillation, baseline intra-ocular pressure 21≤ mmHg
[4] = 2 hours after ocular instillation, whole cohort, least mean square value ± SE
[5] = before ocular instillation (immediately before ocular instillation in the morning), whole cohort, least mean square value ± SE
[6] = before ocular instillation, baseline intra-ocular pressure 15≤ to <18 mmHg
[7] = before ocular instillation, baseline intra-ocular pressure 18≤ to <−21 mmHg
[8] = before ocular instillation, baseline intra-ocular pressure 21≤ mmHg

In the case of `C[C@H]1CNCCCN1S(=O)(=O)c1cccc2cncc(F)c12` [Ripasudil only, (S)-(−)-1-(4-fluoro-5-isoquinolinesulfonyl)-2-methyl-1,4-homopiperazine], the “Change from the baseline intra-ocular pressure First half (Week 4-28)” value (“Change … (Week 4-28)” for short) [1] is reported as −2.86 ± 0.24 mmHg, the “Change from the baseline intra-ocular pressure Second half (Week 32-52)” value (“Change … (Week 32-52)” for short) [1] is reported as −3.35 ± 0.25 mmHg and the “Difference (second half with respect to first half)” value (“Difference” for short) [1] is reported as −0.49 ± 0.12 mmHg. For the same molecule, the “Change … (Week 4-28)” value [2] was −3.24 ± 0.22 mmHg, the “Change … (Week 32-52)” value [2] was −3.71 ± 0.22 mmHg and the “Difference” value [2] was −0.47 ± 0.11 mmHg. For the same molecule, the “Change … (Week 4-28)” value [3] was −3.55 ± 0.40 mmHg, the “Change … (Week 32-52)” value [3] was −4.39 ± 0.41 mmHg and the “Difference” value [3] was −0.84 ± 0.17 mmHg. For the same molecule, the “Difference” value (2 hours after ocular instillation, whole cohort) was −0.58 ± 0.08 mmHg, the “Change … (Week 4-28)” value [4] was −3.23 ± 0.17 mmHg and the “Change … (Week 32-52)” value [4] was −3.81 ± 0.17 mmHg. The “Change … (Week 32-52)” value (2 hours after ocular instillation, whole cohort, least mean square value ± SE, listed as ripasudil) was −3.81 mmHg, the “Difference” value (2 hours after ocular instillation, whole cohort, listed as ripasudil) was −0.58 mmHg and the “Difference” value (before ocular instillation (immediately before ocular instillation in the morning), whole cohort) was −0.49 ± 0.07 mmHg. The “Change … (Week 4-28)” value [5] was −2.12 ± 0.15 mmHg, the “Change … (Week 32-52)” value [5] was −2.61 ± 0.15 mmHg and the “Change … (Week 32-52)” value (before ocular instillation (immediately before ocular instillation in the morning), whole cohort, least mean square value ± SE, listed as ripasudil) was −2.61 mmHg. For the same molecule, the “Difference” value (before ocular instillation (immediately before ocular instillation in the morning), whole cohort, listed as ripasudil) was −0.49 mmHg, the “Change … (Week 4-28)” value [6] was −1.30 ± 0.25 mmHg and the “Change … (Week 32-52)” value [6] was −1.70 ± 0.26 mmHg. For the same molecule, the “Difference” value [6] was −0.40 ± 0.12 mmHg, the “Change … (Week 4-28)” value [7] was −2.38 ± 0.16 mmHg and the “Change … (Week 32-52)” value [7] was −2.66 ± 0.17 mmHg. The “Difference” value [7] was −0.28 ± 0.11 mmHg, the “Change … (Week 4-28)” value [8] was −2.52 ± 0.34 mmHg and the “Change … (Week 32-52)” value [8] was −3.42 ± 0.35 mmHg. The “Difference” value [8] was −0.91 ± 0.16 mmHg, the “Difference” value (before ocular instillation, baseline intra-ocular pressure 21≤ mmHg, listed as ripasudil) was −0.91 mmHg and the “intra-ocular pressure-lowering effect on long-term continuous administration (in words)” value (long-term continuous ocular instillation) was “exhibited a further intra-ocular pressure-lowering effect by continuous ocular instillation”.
